{"source": "patent US20050227966A1", "about": "(Wyeth, priority 2004, published 2005)", "origin": "cited, not measured here", "key": {"uterine response": {"test_system": "uterine response", "settings": "preclinical models of uterine stimulation"}, "[1]": {"test_system": "ovariectomized rat model of osteopenia"}, "[2]": {"test_system": "MCF-7 cell line (human breast cancer cell line)", "settings": "MCF-7 cells"}}}
{"smiles": "Cc1c(-c2ccc(O)cc2)n(Cc2ccc(OCCN3CCCCCC3)cc2)c2ccc(O)cc12", "note": "[bazedoxifene acetate, 1-[4-(2-azepan-1-yl-ethoxy)-benzyl]-2-(4-hydroxy-phenyl)-3-methyl-1H-indol-5-ol acetic acid]", "values": [{"measurement": "stimulation of uterine response", "setting": "uterine response", "value": "little or no stimulation"}, {"measurement": "effect in preventing bone loss and reducing cholesterol", "setting": "[1]", "value": "estrogen agonist-like effect"}, {"measurement": "estrogen agonist/antagonist behaviour", "setting": "[2]", "value": "estrogen antagonist"}]}
